In article PMC10590377, “Synthesis of novel coumarin-based thiosemicarbazones and their implications in diabetic management via in-vitro and in-silico approaches” (Scientific Reports, 2023):
Several values for one entry are separate records, joined by “and”; a condition that tells them apart may be missing. Identical values can stand only once. Entries after “also recorded” stand apart in the source; their conditions may differ.

Key:
[1] = test system: α-glucosidase; assay: In-vitro α-glucosidase inhibition assay (4-nitro phenyl α-D-glucopyranoside substrate); assay type: biochemical; details: for Percent inhibition (0.5 mM): test samples 0.5 mM; for IC50: triplicate, ± SEM
Protocol: The most recent investigations were carried out utilizing the techniques we previously discussed. The enzyme and substrate were dissolved in phosphate buffer (pH 6.8) which also served as the reaction buffer for the experiments. A 96-well plate was used for the following ingredients: enzyme 2 U/2 mL, test samples (0.5 mM), 20 µL/well, enzyme 20 µL/well, and 135 µL/well reaction buffer. The plate was incubated for 15 min at 37 °C. Changes in absorbance brought on by substrate breakdown were measured at 400 nm for 30 min after each well-received 25 µL of 4-nitro phenyl α-D-glucopyranoside.
The formula below was used to compute the percent inhibition of all drugs tested.1 the%Inhibition=100-O.Dtestcompound/O.Dcontrol×100
EZ-FIT (Perrella Scientific, Inc., USA) to calculate the IC50 for all antidiabetic agents under the study.

[2] = test system: α-glucosidase; assay: Kinetic studies of α-glucosidase inhibition (Lineweaver–Burk, secondary replot, Dixon plots); assay type: biochemical; details: for type / mode of inhibition: Lineweaver–Burk plots; for Ki: secondary replot of Lineweaver–Burk plots, reconfirmed by Dixon plots
Source text: In such types of inhibition, the Vmax of the enzyme remains constant, while the Km value increases (Fig. 3). Lineweaver–Burk plots were used to determine the type of inhibition of the given compounds, in which the reciprocal of the reaction rate was plotted vs. the reciprocal of substrate concentrations to investigate their effect on the Km and Vmax of the α-glucosidase (Fig. 3). To determine the Ki values for all compounds evaluated for kinetics study secondary replot of Lineweaver–Burk plots were applied by taking the slope of each line in Lineweaver–Burk plots vs. different concentrations of the tested compounds. Further Dixon plots were used for the reconfirmation of Ki values (Fig. 3).
Figure 3 The inhibitory mode of 3c, 3g and 3i against α-glucosidase enzyme (A) Line weaver-Burk plot of reciprocal of rate of reaction (velocities) vs reciprocal of substrate p-nitro phenyl-α-D-glucopyranoside in the absence of (filled black square), and in the presence of 7.00 (filled black circle), 3.50 (open circle) and 1.75 µM (open square) of 3c, 3g and 3i. (B) Secondary replot of Line weaver-Burk plot between the slopes of each line on Line weaver-Burk plot against different concentrations of 3c, 3g and 3i. (C) Dixon plot of reciprocal of rate of reaction (velocities) vs different concentrations of 3c, 3g and 3i.

Row | SMILES | Percent inhibition (0.5 mM) [1] [%] | IC50 [1] | type / mode of inhibition [2] | Ki [2] [µM]
1 | O=c1oc2ccccc2c(Cl)c1/C=N/NC(=S)Nc1cccc(Cl)c1Cl [Compound 3k, (E)-2-((4-chloro-2-oxo-2H-chromen-3-yl)methylene)-N-(2,3-dichlorophenyl) hydrazine-1-carbothioamide] | 92.54 | 4.22 ± 0.1 µM | – | –
2 | COc1cccc(NC(=S)N/N=C/c2c(Cl)c3ccccc3oc2=O)c1 [Compound 3b, (E)-2-((4-chloro-2-oxo-2H-chromen-3-yl)methylene)-N-(3-methoxyphenyl)hydrazine-1-carbothioamide] | 94.67 | 6.1 ± 0.11 µM | – | –
3 | C[C@H]1O[C@H](O[C@H]2[C@H](O)[C@@H](O)[C@@H](O[C@H]3[C@H](O)[C@@H](O)C(O)O[C@@H]3CO)O[C@@H]2CO)[C@H](O)[C@@H](O)[C@@H]1N[C@H]1C=C(CO)[C@@H](O)[C@H](O)[C@H]1O (stereo partly drawn) [acarbose, reference compound] | 59.37 | – | – | –
4 | O=c1oc2ccccc2c(Cl)c1/C=N/NC(=S)Nc1ccc([N+](=O)[O-])cc1 [Compound 3i, (E)-2-((4-chloro-2-oxo-2H-chromen-3-yl)methylene)-N-(4-nitrophenyl) hydrazine-1-carbothioamide] | 95.30 | 2.13 ± 0.04 µM | competitive inhibitor | 1.51 ± 0.0086
5 | O=c1oc2ccccc2c(Cl)c1/C=N/NC(=S)Nc1ccccc1 [Compound 3a, (E)-2-((4-chloro-2-oxo-2H-chromen-3-yl)methylene)-N-phenylhydrazine-1-carbothioamide] | 92.45 | 10 µM and 10.1 µM | – | –
6 | O=c1oc2ccccc2c(Cl)c1/C=N/NC(=S)NCCc1ccccc1 [Compound 3g, (E)-2-((4-chloro-2-oxo-2H-chromen-3-yl)methylene)-N-phenethylhydrazine-1-carbothioamide] | 95.15 | 2.33 ± 0.04 µM | competitive inhibitor | 1.33 ± 0.0027
7 | COc1ccc(NC(=S)N/N=C/c2c(Cl)c3ccccc3oc2=O)cc1 [Compound 3h, (E)-2-((4-chloro-2-oxo-2H-chromen-3-yl)methylene)-N-(4-methoxyphenyl) hydrazine-1-carbothioamide] | 94.63 | 3.4 ± 0.08 µM | – | –
8 | O=c1oc2ccccc2c(Cl)c1/C=N/NC(=S)Nc1cc(Cl)c(Cl)cc1Cl [Compound 3c, (E)-2-((4-chloro-2-oxo-2H-chromen-3-yl)methylene)-N-(2,4,5-trichlorophenyl) hydrazine-1-carbothioamide] | 94.68 | 2.57 ± 0.03 µM | competitive inhibitor; also recorded: concentration-dependent inhibition | 1.62 ± 0.041
9 | O=c1oc2ccccc2c(Cl)c1/C=N/NC(=S)Nc1ccccc1F [Compound 3l, (E)-2-((4-chloro-2-oxo-2H-chromen-3-yl)methylene)-N-(2-fluorophenyl) hydrazine-1-carbothioamide] | 92.08 | 8.84 ± 0.16 µM | – | –
10 | Cc1ccc(NC(=S)N/N=C/c2c(Cl)c3ccccc3oc2=O)cc1 [Compound 3e, (E)-2-((4-chloro-2-oxo-2H-chromen-3-yl)methylene)-N-(p-tolyl) hydrazine-1-carbothioamide] | 92.75 | 9.11 ± 0.2 µM | – | –
11 | CNC(=S)N/N=C/c1c(Cl)c2ccccc2oc1=O [Compound 3m, (E)-2-((4-chloro-2-oxo-2H-chromen-3-yl)methylene)-N-methylhydrazine-1-carbothioamide] | 91.37 | 24.2 ± 0.31 µM | – | –
12 | Cc1cccc(C)c1NC(=S)N/N=C/c1c(Cl)c2ccccc2oc1=O [Compound 3j, (E)-2-((4-chloro-2-oxo-2H-chromen-3-yl)methylene)-N-(2,6-dimethylphenyl) hydrazine-1-carbothioamide] | 91.29 | 22.1 ± 0.37 µM | – | –
13 | O=c1oc2ccccc2c(Cl)c1/C=N/NC(=S)NCc1ccccc1 [Compound 3d, (E)-N-benzyl-2-((4-chloro-2-oxo-2H-chromen-3-yl)methylene) hydrazine-1-carbothioamide] | 91.20 | 12.6 ± 0.16 µM | – | –
14 | O=c1oc2ccccc2c(Cl)c1/C=N/NC(=S)NC1CCCCC1 [Compound 3f, (E)-2-((4-chloro-2-oxo-2H-chromen-3-yl)methylene)-N-cyclohexylhydrazine-1-carbothioamide] | 91.70 | 11.2 ± 0.24 µM | – | –
